The results in this text go back to ChEMBL document CHEMBL1201862, “PubChem BioAssay data set” (2004).

Test systems include 786-0; EKVX; HCT-116; HL-60; HOP-62; HOP-92; HT-29; IGROV-1; K562; KM12; M14; MDA-MB-231; MDA-N; NCI-H460; OVCAR-4; SK-MEL-2; SK-MEL-5; SN12C; TK-10; U-251.
Assay in all cases: DTP human tumour cell line panel, 48 h

The structures appear in SMILES notation.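 Cells were grown in 96-well plates and exposed to each compound for 48 hours at five concentrations; endpoints were interpolated linearly between bracketing concentrations, or set to the highest concentration if not reached. Abbreviation: GI50, concentration required for 50% inhibition of growth.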 Calls of active or inactive are those of the source. Cut-off read from the data, not from the text of the source: active = GI50 up to about 1.1 µM and inactive = higher.

In the case of `Cc1cn2c(/C=N/NC(=N)N)c(-c3ccc(Cl)c([N+](=O)[O-])c3)nc2s1`, the concentration for 50% growth inhibition (GI50) is 0.984 µM (active) in the test with 786-0; 0.776 µM (active) in the test on EKVX; 0.207 µM (active) with HCT-116; 0.116 µM (active) with HL-60; 1.54 µM (inactive) with HOP-62; 1.46 µM (inactive) in the test on HOP-92. The GI50 is 0.55 µM (active) in the test with HT-29; 1.03 µM (active) in the test with IGROV-1; 0.257 µM (active) with K562; 0.387 µM (active) in the test with KM12; 1.63 µM (inactive) in the test on M14; 1.13 µM (inactive) with MDA-MB-231. Moreover, the 50% growth inhibitory concentration (GI50) with MDA-N is 0.857 µM (active); with NCI-H460 it was 1.42 µM (inactive); with OVCAR-4 it was 1.55 µM (inactive); in the test with SK-MEL-2, 0.647 µM (active); in the test with SK-MEL-5 it was 1.56 µM (inactive); with SN12C it was 0.705 µM (active). In addition, the GI50 with TK-10 is 1.68 µM (inactive); with U-251, 0.268 µM (active).

On to `O=C(CC(=O)Nc1ccccc1Cl)NNC(c1cc(/N=N/c2ccc(Br)cc2)ccc1O)P(O)O` (stereo not given), for which the GI50 in the test with 786-0 was 0.565 µM (active); in the test on EKVX, 4.22 µM (inactive); with HCT-116 it was 0.311 µM (active); in the test on HL-60, 0.323 µM (active); with HOP-62 it was 3.88 µM (inactive); in the test with HOP-92, 5.98 µM (inactive). In addition, the GI50 in the test with HT-29 was > 10 µM (inactive); in the test with IGROV-1, 6.9 µM (inactive); in the test on K562 it was 2.4 µM (inactive); in the test with KM12 it was 2.95 µM (inactive); in the test with M14, 0.61 µM (active); in the test with MDA-MB-231, 3.06 µM (inactive). For the same compound, the GI50 with MDA-N is 3.2 µM (inactive); with NCI-H460, 0.537 µM (active); in the test with OVCAR-4 it was 2.34 µM (inactive); with SK-MEL-2, > 10 µM (inactive); in the test on SK-MEL-5, 1.19 µM (inactive); in the test on SN12C, 1.6 µM (inactive). Further, the GI50 with TK-10 was 1.61 µM (inactive); in the test on U-251, 1.54 µM (inactive).

On to `O=C(NP(=O)(N1CC1)N1CC1)c1cc(I)ccc1I` [DIIODBENZOTEPH], for which the GI50 is 21.9 µM (inactive) in the test with 786-0; 78 µM (inactive) with EKVX; 40.3 µM (inactive) in the test on HCT-116; 5.06 µM (inactive) in the test on HL-60; 19.1 µM (inactive) in the test on HOP-62; 59.7 µM (inactive) with HOP-92. Also, the GI50 was 62.7 µM (inactive) in the test with HT-29; 40.6 µM (inactive) in the test with IGROV-1; 59 µM (inactive) in the test with K562; > 91.2 µM (inactive) with KM12; 34.8 µM (inactive) with M14; > 100 µM (inactive) with MDA-MB-231. Also, the GI50 in the test with MDA-N is > 73.6 µM (inactive); with NCI-H460, 3.72 µM (inactive); in the test on OVCAR-4, 77.3 µM (inactive); with SK-MEL-2, 61 µM (inactive); with SK-MEL-5, 43.1 µM (inactive); in the test with SN12C, 26.8 µM (inactive). The values for the GI50 in the test with TK-10 and in the test on U-251 were > 100 µM (inactive) and 24.6 µM (inactive), respectively.

For `O=c1oc2c(ccc3c(O)cccc32)c2c1CCCC2`, the GI50 was 33.4 µM (inactive) in the test with 786-0; 33.8 µM (inactive) in the test on EKVX; > 100 µM (inactive) in the test on HCT-116; > 100 µM (inactive) with HL-60; 18.9 µM (inactive) in the test on HOP-62; 16.6 µM (inactive) in the test on HOP-92. The GI50 is > 100 µM (inactive) in the test with HT-29; > 100 µM (inactive) in the test with IGROV-1; > 100 µM (inactive) with K562; > 100 µM (inactive) in the test on KM12; > 100 µM (inactive) with M14; 17.4 µM (inactive) in the test on MDA-MB-231. Further, the GI50 in the test with MDA-N is > 100 µM (inactive); with NCI-H460 it was 45.2 µM (inactive); in the test with OVCAR-4 it was > 100 µM (inactive); with SK-MEL-2, 3.52 µM (inactive); in the test with SK-MEL-5, 47.2 µM (inactive); in the test with SN12C it was > 100 µM (inactive). Moreover, the GI50 with TK-10 is > 100 µM (inactive); in the test on U-251, 15 µM (inactive).

Turning to `O=c1c(Sc2ncccn2)c(Sc2ncccn2)cnn1CCl`, the GI50 is 1.87 µM (inactive) with 786-0; 2.9 µM (inactive) in the test on EKVX; 1.85 µM (inactive) in the test on HCT-116; 2.04 µM (inactive) in the test on HL-60; 1.49 µM (inactive) in the test with HOP-62; 2.59 µM (inactive) in the test on HOP-92. Besides, the GI50 is 1.98 µM (inactive) with HT-29; 1.17 µM (inactive) in the test with IGROV-1; 3.39 µM (inactive) in the test with K562; 14.7 µM (inactive) in the test on KM12; 2.12 µM (inactive) with M14; 6.98 µM (inactive) in the test on MDA-MB-231. The GI50 in the test on MDA-N is 2.17 µM (inactive); in the test with NCI-H460 it was 14.7 µM (inactive); in the test with OVCAR-4, 2.15 µM (inactive); in the test with SK-MEL-2, 2.22 µM (inactive); in the test with SK-MEL-5, 6.87 µM (inactive); in the test with SN12C, 3.79 µM (inactive). The GI50 in the test on TK-10 is 0.398 µM (active); with U-251, 7.08 µM (inactive).

For `Cc1c(NC(=O)Nc2c(Cl)cccc2Cl)c(=O)n(-c2ccccc2)n1C`, the GI50 in the test with 786-0, with EKVX, in the test with HCT-116, in the test with HL-60, with HOP-62 and in the test on HOP-92 was > 100 µM (inactive) throughout. Also, the GI50 with HT-29, in the test with IGROV-1, in the test on K562, in the test with KM12, in the test with M14 and with MDA-MB-231 was > 100 µM (inactive) in each case. Further, the GI50 with MDA-N, with NCI-H460, in the test with OVCAR-4, with SK-MEL-2, in the test with SK-MEL-5 and with SN12C was > 100 µM (inactive) throughout. The GI50 with TK-10 and in the test with U-251 was > 100 µM (inactive) throughout.

For `COc1cc(I)c2c3c1OC1C34CCN(C)C(C2)C4=CC(I)C1(OC)OC` (stereo not given), the GI50 was 20.3 µM (inactive) in the test with 786-0; 29.6 µM (inactive) with EKVX; 23.4 µM (inactive) with HCT-116; 17 µM (inactive) in the test with HL-60; 19.1 µM (inactive) in the test with HOP-62; 13.1 µM (inactive) with HOP-92. Further, the GI50 in the test on HT-29 is 26.5 µM (inactive); in the test with IGROV-1, 20.1 µM (inactive); in the test on K562 it was 20.7 µM (inactive); with KM12, 17.5 µM (inactive); in the test with M14, 37.4 µM (inactive); with MDA-MB-231, 20.1 µM (inactive). Further, the GI50 was 19.9 µM (inactive) with MDA-N; 19.1 µM (inactive) with NCI-H460; 15 µM (inactive) with OVCAR-4; 16.4 µM (inactive) in the test on SK-MEL-2; 17.1 µM (inactive) in the test on SK-MEL-5; 16.3 µM (inactive) in the test on SN12C. For the same compound, the GI50 was 21.3 µM (inactive) with TK-10 and 18.3 µM (inactive) in the test with U-251.

For `COc1ccccc1C[C@@H]1OC2(C=CC(=O)C=C2)O[C@H]1Cc1ccccc1OC`, the GI50 with 786-0 was 1.39 µM (inactive); in the test with EKVX, 5.65 µM (inactive); in the test with HCT-116, 1.09 µM (active); in the test on HL-60 it was 7.43 µM (inactive); in the test on HOP-62 it was 7.4 µM (inactive); with HOP-92 it was 9.55 µM (inactive). Moreover, the GI50 in the test on HT-29 is 9.02 µM (inactive); in the test with IGROV-1, 6.75 µM (inactive); in the test with K562 it was 11.5 µM (inactive); with KM12 it was 8.69 µM (inactive); with M14 it was 7.5 µM (inactive); in the test on MDA-MB-231, 13.8 µM (inactive). Further, the GI50 in the test on MDA-N is 6 µM (inactive); with NCI-H460, 23 µM (inactive); in the test with OVCAR-4, 8.38 µM (inactive); with SK-MEL-2 it was 9.29 µM (inactive); with SK-MEL-5, 8.99 µM (inactive); with SN12C, 9.64 µM (inactive). Besides, the results for the GI50 with TK-10 and with U-251 were 9.06 µM (inactive) and 10.2 µM (inactive), respectively.

With `Nc1ccc(-c2nc3cc(F)ccc3s2)cc1`, the GI50 is > 85.3 µM (inactive) in the test with 786-0; 2 µM (inactive) in the test with EKVX; > 69.8 µM (inactive) with HCT-116; 25.4 µM (inactive) with HL-60; 18.3 µM (inactive) with HOP-62; 23.1 µM (inactive) with HOP-92. Also, the GI50 in the test with HT-29 is > 91 µM (inactive); with IGROV-1, 13 µM (inactive); in the test on K562 it was > 100 µM (inactive); with KM12, > 68.4 µM (inactive); with M14 it was 71.6 µM (inactive); with MDA-MB-231, 22.5 µM (inactive). For the same compound, the GI50 in the test on MDA-N was > 100 µM (inactive); with NCI-H460, 7.98 µM (inactive); in the test with OVCAR-4, > 36.7 µM (inactive); in the test on SK-MEL-2, 30.8 µM (inactive); with SK-MEL-5, 61.4 µM (inactive); in the test on SN12C, > 100 µM (inactive). Moreover, the GI50 in the test with TK-10 is 30.5 µM (inactive); with U-251, 39.4 µM (inactive).

Regarding `COc1ccc(Nc2nc3ccccc3nc2C(=O)O)cc1`, the GI50 is 49.1 µM (inactive) in the test on 786-0; 54.5 µM (inactive) with EKVX; 58.6 µM (inactive) in the test with HCT-116; 63.8 µM (inactive) in the test with HL-60; > 100 µM (inactive) in the test on HOP-62; > 100 µM (inactive) with HOP-92. In addition, the GI50 in the test with HT-29 was > 100 µM (inactive); in the test on IGROV-1 it was 87.9 µM (inactive); in the test with K562, 63.4 µM (inactive); with KM12, 26.2 µM (inactive); with M14 it was > 100 µM (inactive); with MDA-MB-231 it was > 100 µM (inactive). For the same compound, the GI50 in the test with MDA-N was 92.9 µM (inactive); in the test with NCI-H460, 23.6 µM (inactive); in the test on OVCAR-4 it was > 100 µM (inactive); in the test on SK-MEL-2, > 100 µM (inactive); in the test on SK-MEL-5 it was 37.2 µM (inactive); in the test on SN12C, 80.2 µM (inactive). The results for the GI50 in the test on TK-10 and with U-251 were > 100 µM (inactive) and 64.3 µM (inactive), respectively.

The GI50 is the concentration that inhibits growth by half.
